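Step 1: Grow cells in 96-well plates. Step 2: Expose to compound for 48 hours at 5 concentrations. Step 3: Interpolate endpoints linearly; if unreached, use highest concentration. GI50 marks 50% less growth.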 Active and inactive are the calls of the source. Cut-off read from the data, not from the text of the source: active = GI50 up to about 1.1 µM and inactive = higher.
Assays:
Test in all cases: NCI anticancer screen, dose series, 48 h
IGROV-1 = test system: IGROV-1
UACC-62 = test system: UACC-62
BT-549 = test system: BT-549
HT-29 = test system: HT-29
OVCAR-3 = test system: OVCAR-3
SF-295 = test system: SF-295
LOX IMVI = test system: LOX IMVI
HOP-62 = test system: HOP-62
SNB-75 = test system: SNB-75
SW-620 = test system: SW-620
SF-539 = test system: SF-539
SF-268 = test system: SF-268
NCI-H23 = test system: NCI-H23
HCT-116 = test system: HCT-116
MDA-MB-435 = test system: MDA-MB-435
UO-31 = test system: UO-31
PC-3 = test system: PC-3
HL-60 = test system: HL-60
SNB-19 = test system: SNB-19
CCRF-CEM = test system: CCRF-CEM

SMILES | GI50 (IGROV-1) | GI50 (UACC-62) | GI50 (BT-549) | GI50 (HT-29) | GI50 (OVCAR-3) | GI50 (SF-295) | GI50 (LOX IMVI) | GI50 (HOP-62) | GI50 (SNB-75) | GI50 (SW-620) | GI50 (SF-539) | GI50 (SF-268) | GI50 (NCI-H23) | GI50 (HCT-116) | GI50 (MDA-MB-435) | GI50 (UO-31) | GI50 (PC-3) | GI50 (HL-60) | GI50 (SNB-19) | GI50 (CCRF-CEM)
O=c1oc2ccccc2c(O)c1C(C/C(CCN1CCCC1)=N/O)c1ccccc1 (stereo not drawn) | > 100 µM (inactive) | > 100 µM (inactive) | 31.7 µM (inactive) | > 100 µM (inactive) | > 100 µM (inactive) | > 100 µM (inactive) | > 100 µM (inactive) | > 100 µM (inactive) | > 91.2 µM (inactive) | > 100 µM (inactive) | > 100 µM (inactive) | > 100 µM (inactive) | > 100 µM (inactive) | > 100 µM (inactive) | > 100 µM (inactive) | > 100 µM (inactive) | > 100 µM (inactive) | > 31.6 µM (inactive) | > 100 µM (inactive) | 
COc1c2cc(C(C)(C)C)cc1Cc1cccc(c1OCc1cccc([N+](=O)[O-])c1)Cc1cc(C(C)(C)C)cc(c1OC)Cc1cccc(c1OCc1cccc([N+](=O)[O-])c1)Cc1cc(C(C)(C)C)cc(c1OC)Cc1cccc(c1OCc1cccc([N+](=O)[O-])c1)C2 | > 50 µM (inactive) | > 50 µM (inactive) | 0.005 µM (active) | > 50 µM (inactive) | > 50 µM (inactive) | > 50 µM (inactive) |  | > 50 µM (inactive) | 23.3 µM (inactive) | > 50 µM (inactive) | > 50 µM (inactive) | > 50 µM (inactive) | > 50 µM (inactive) | > 50 µM (inactive) | > 50 µM (inactive) | > 50 µM (inactive) | > 50 µM (inactive) | > 50 µM (inactive) | > 50 µM (inactive) | > 5 µM (inactive)
O=c1oc2c(Cl)cc(Cl)cc2cc1C1=CSC2=NCCN12 | 48.8 µM (inactive) | 51.9 µM (inactive) | 26 µM (inactive) | 61.2 µM (inactive) | 26.7 µM (inactive) | 40 µM (inactive) | 59.8 µM (inactive) | 38.8 µM (inactive) | 65.8 µM (inactive) | 50.5 µM (inactive) | > 100 µM (inactive) |  | 46 µM (inactive) | 31 µM (inactive) | 32 µM (inactive) | 29.3 µM (inactive) | 42.1 µM (inactive) | 30.3 µM (inactive) | 44.8 µM (inactive) | 31.3 µM (inactive)
O=C(Nc1cc(Cl)c(I)c(Cl)c1)C(F)(F)F | 27.2 µM (inactive) | 20.3 µM (inactive) | 25.9 µM (inactive) | 19.8 µM (inactive) | 24.9 µM (inactive) | 33.3 µM (inactive) |  | 31.2 µM (inactive) | 20.8 µM (inactive) | 45.3 µM (inactive) | > 10 µM (inactive) | 27.1 µM (inactive) | 26.2 µM (inactive) | 24.5 µM (inactive) | 30.3 µM (inactive) | 23.6 µM (inactive) | 31.1 µM (inactive) | 19.2 µM (inactive) | 35.9 µM (inactive) | 24.8 µM (inactive)
N=c1c2c(=S)n(-c3ccccc3)c(=S)n(-c3ccccc3)c2nc(SCCN2CCOCC2)n1-c1ccccc1 | 1.76 µM (inactive) | 1.81 µM (inactive) | 1.98 µM (inactive) | 2.05 µM (inactive) | 1.8 µM (inactive) | 7.19 µM (inactive) | 1.71 µM (inactive) | 2.12 µM (inactive) | 2.07 µM (inactive) | 1.91 µM (inactive) | 3.83 µM (inactive) | 1.79 µM (inactive) | 2.67 µM (inactive) | 1.85 µM (inactive) | 1.82 µM (inactive) |  | 1.85 µM (inactive) | 1.41 µM (inactive) | 10.4 µM (inactive) | 1.38 µM (inactive)
Cc1c(C#N)c2nnn(-c3ccccc3)c(=O)n2c1-c1ccccc1 | 1.48 µM (inactive) | 4.79 µM (inactive) | 5.42 µM (inactive) |  | 0.824 µM (active) | 0.752 µM (active) | 4.12 µM (inactive) | 4.48 µM (inactive) | 2.95 µM (inactive) |  | 1.17 µM (inactive) | 7.85 µM (inactive) | 5.43 µM (inactive) | 0.619 µM (active) | 0.307 µM (active) | 5.75 µM (inactive) | 1.43 µM (inactive) | 0.376 µM (active) | 3.31 µM (inactive) | 2.24 µM (inactive)
CC(=O)NC(=N/N=C1/C(=O)Nc2ccc(C)cc21)NC(C)=O | > 100 µM (inactive) | > 100 µM (inactive) | > 100 µM (inactive) | > 100 µM (inactive) |  | 52.1 µM (inactive) | > 100 µM (inactive) | > 100 µM (inactive) | 31.6 µM (inactive) | > 100 µM (inactive) |  | > 100 µM (inactive) | > 100 µM (inactive) | > 100 µM (inactive) | > 100 µM (inactive) | 84.1 µM (inactive) | > 100 µM (inactive) | > 100 µM (inactive) | > 100 µM (inactive) | > 100 µM (inactive)
COc1cc(OC)c2c(=O)cc(-c3ccccc3F)[nH]c2c1 | 37.5 µM (inactive) | 52.8 µM (inactive) | > 100 µM (inactive) | 38.2 µM (inactive) | 57 µM (inactive) | 34.3 µM (inactive) | 61.1 µM (inactive) | 82.6 µM (inactive) | 33.9 µM (inactive) | 59.3 µM (inactive) |  | 39.2 µM (inactive) | 32.9 µM (inactive) | 38.3 µM (inactive) | 8.38 µM (inactive) | 28.6 µM (inactive) | 47.2 µM (inactive) | > 100 µM (inactive) | 26 µM (inactive) | 88.9 µM (inactive)
COc1cc(-c2c3c(cc4c2OCO4)[C@@H](Nc2ccc4c(c2)Cc2cc(N[C@@H]5c6cc7c(cc6C(c6cc(OC)c(O)c(OC)c6)[C@H]6C(=O)OC[C@H]56)OCO7)ccc2-4)[C@H]2COC(=O)[C@@H]2C3)cc(OC)c1O (stereo partly drawn) | 1.56 µM (inactive) |  | 35.1 µM (inactive) | 20 µM (inactive) | 55.5 µM (inactive) | 20.3 µM (inactive) | 51.3 µM (inactive) | 18.5 µM (inactive) | > 100 µM (inactive) | 49.8 µM (inactive) | 0.977 µM (active) | 51.2 µM (inactive) | 76.4 µM (inactive) | 21.8 µM (inactive) | 13.7 µM (inactive) | 21.9 µM (inactive) | 10.9 µM (inactive) | > 100 µM (inactive) | 36 µM (inactive) | > 100 µM (inactive)
COc1cc(/C=C2\N=C(C)N(n3c(-c4ccccc4)nc4ccccc4c3=O)C2=O)cc(OC)c1OC | > 100 µM (inactive) | > 100 µM (inactive) | > 100 µM (inactive) | > 100 µM (inactive) |  | > 100 µM (inactive) | > 100 µM (inactive) | > 100 µM (inactive) | > 100 µM (inactive) | > 100 µM (inactive) | > 100 µM (inactive) | > 100 µM (inactive) | 94.6 µM (inactive) | > 100 µM (inactive) | > 100 µM (inactive) | > 100 µM (inactive) | > 100 µM (inactive) | > 100 µM (inactive) | > 100 µM (inactive) | > 100 µM (inactive)
Cc1nn(C(=O)c2ccccc2O)c2c1C(c1ccccc1)SC(=N)N2 (stereo not drawn) | 0.481 µM (active) | 0.44 µM (active) | > 10 µM (inactive) | 5.38 µM (inactive) | 1.79 µM (inactive) | 3.74 µM (inactive) | 3.1 µM (inactive) | 2.64 µM (inactive) | 0.311 µM (active) | 3.58 µM (inactive) | 0.214 µM (active) | 3.27 µM (inactive) | 0.836 µM (active) | 0.906 µM (active) | 0.416 µM (active) |  | 4.57 µM (inactive) | 1.61 µM (inactive) | 6.38 µM (inactive) | 2.36 µM (inactive)
C1CCN2CC34CC(CC5CCCN(C6CCCC3N6)C54)C2C1 (stereo not drawn) | > 100 µM (inactive) | > 100 µM (inactive) | > 100 µM (inactive) | > 100 µM (inactive) | > 100 µM (inactive) | > 100 µM (inactive) | > 100 µM (inactive) | > 100 µM (inactive) | > 100 µM (inactive) | > 100 µM (inactive) | > 100 µM (inactive) | > 100 µM (inactive) | > 100 µM (inactive) | > 100 µM (inactive) | > 100 µM (inactive) |  | > 100 µM (inactive) | > 100 µM (inactive) | > 100 µM (inactive) | > 100 µM (inactive)
CN(C)c1ccc(-c2nc(-c3cc4c(ccc5ccccc54)oc3=O)cs2)cc1 | > 100 µM (inactive) | > 100 µM (inactive) | > 100 µM (inactive) | > 100 µM (inactive) |  | > 100 µM (inactive) | > 100 µM (inactive) | > 100 µM (inactive) | > 100 µM (inactive) | > 100 µM (inactive) | > 100 µM (inactive) | > 100 µM (inactive) |  | > 100 µM (inactive) | > 100 µM (inactive) | > 100 µM (inactive) | > 100 µM (inactive) | > 100 µM (inactive) | > 100 µM (inactive) | > 100 µM (inactive)
COC(=O)C(CCSC)NC(=O)CSc1nnc(COc2ccc(Cl)cc2)n1-c1ccccc1 (stereo not drawn) | 16 µM (inactive) | 18.2 µM (inactive) | 19.6 µM (inactive) | 18.3 µM (inactive) |  | 17 µM (inactive) | 13.8 µM (inactive) | 3.08 µM (inactive) | 16.7 µM (inactive) | 21.7 µM (inactive) | 18.4 µM (inactive) | 17.1 µM (inactive) | 17.8 µM (inactive) | 16.6 µM (inactive) | 18.4 µM (inactive) | 3.94 µM (inactive) | 18.9 µM (inactive) | 18.3 µM (inactive) | 23.5 µM (inactive) | 23.7 µM (inactive)
